Calls of active or inactive are those of the source. No cut-off for these calls is given here.
Columns and labels:
[1] = target: T1, Lethal factor (Bacillus anthracis) (UniProt P15917); assay: Protection against Bacillus anthracis lethal toxin-mediated cytotoxicity in mouse RAW264.7 cells assessed as change in viability at 0.125 to 12.5 uM relative to toxin-treated control; format: cell-based
T1 sequence (whole entry): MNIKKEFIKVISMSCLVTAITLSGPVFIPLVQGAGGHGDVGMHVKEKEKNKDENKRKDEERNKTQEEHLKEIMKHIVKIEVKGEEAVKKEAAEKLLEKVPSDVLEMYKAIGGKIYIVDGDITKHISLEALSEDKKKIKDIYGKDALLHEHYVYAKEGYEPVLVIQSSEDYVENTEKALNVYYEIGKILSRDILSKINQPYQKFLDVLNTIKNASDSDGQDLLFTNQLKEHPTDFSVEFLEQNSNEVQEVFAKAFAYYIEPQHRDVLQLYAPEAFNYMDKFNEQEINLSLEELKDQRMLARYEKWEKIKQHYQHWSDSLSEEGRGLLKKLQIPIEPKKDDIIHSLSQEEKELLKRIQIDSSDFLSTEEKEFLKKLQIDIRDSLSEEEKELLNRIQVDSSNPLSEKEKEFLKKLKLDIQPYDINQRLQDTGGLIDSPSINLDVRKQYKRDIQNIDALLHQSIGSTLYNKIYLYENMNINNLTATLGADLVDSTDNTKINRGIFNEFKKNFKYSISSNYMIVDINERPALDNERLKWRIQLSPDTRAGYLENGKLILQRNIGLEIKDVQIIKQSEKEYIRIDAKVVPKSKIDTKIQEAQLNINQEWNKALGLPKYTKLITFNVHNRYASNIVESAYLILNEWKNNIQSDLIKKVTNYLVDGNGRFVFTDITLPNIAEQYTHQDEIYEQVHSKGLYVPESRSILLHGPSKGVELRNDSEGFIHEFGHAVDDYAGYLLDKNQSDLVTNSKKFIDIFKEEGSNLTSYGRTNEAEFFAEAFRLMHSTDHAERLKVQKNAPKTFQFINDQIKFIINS

[2] = target: T2, Calmodulin-sensitive adenylate cyclase (Bacillus anthracis) (UniProt P40136); assay: Inhibition of Bacillus anthracis edema toxin-mediated intoxication in CHOK1 cells assessed as cAMP levels after 4 hrs by HTRF assay; format: cell-based; conditions: CHO-K1
T2 sequence (whole entry): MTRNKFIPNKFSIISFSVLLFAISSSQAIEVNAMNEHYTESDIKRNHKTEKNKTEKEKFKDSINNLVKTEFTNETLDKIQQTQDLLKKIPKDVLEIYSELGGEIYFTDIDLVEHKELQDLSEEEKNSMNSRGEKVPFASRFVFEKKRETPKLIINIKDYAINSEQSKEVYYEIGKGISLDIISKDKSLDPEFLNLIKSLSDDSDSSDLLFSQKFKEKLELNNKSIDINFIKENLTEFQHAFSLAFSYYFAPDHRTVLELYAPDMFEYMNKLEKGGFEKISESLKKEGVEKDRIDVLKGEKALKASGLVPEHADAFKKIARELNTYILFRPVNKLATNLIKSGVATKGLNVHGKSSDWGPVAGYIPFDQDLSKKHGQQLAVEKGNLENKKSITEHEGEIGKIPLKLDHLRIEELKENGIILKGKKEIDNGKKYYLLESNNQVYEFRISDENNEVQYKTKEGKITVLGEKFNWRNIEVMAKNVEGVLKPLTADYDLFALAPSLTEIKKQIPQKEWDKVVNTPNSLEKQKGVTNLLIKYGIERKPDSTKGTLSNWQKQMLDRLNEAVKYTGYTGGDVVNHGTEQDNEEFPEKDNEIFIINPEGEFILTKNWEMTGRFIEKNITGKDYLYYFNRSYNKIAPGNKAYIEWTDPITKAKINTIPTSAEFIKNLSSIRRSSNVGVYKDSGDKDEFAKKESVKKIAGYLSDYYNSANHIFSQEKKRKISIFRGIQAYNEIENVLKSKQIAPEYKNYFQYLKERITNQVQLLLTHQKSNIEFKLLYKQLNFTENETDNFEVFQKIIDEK

[3] = target: Protective antigen (Bacillus anthracis) (UniProt P13423); assay: Inhibition of Bacillus anthracis protective antigen binding to cell surface of mouse RAW264.7 cells at 12.5 uM after 2 hrs by flow cytometry; format: cell-based
Chain of Protective antigen (Bacillus anthracis) (P13423 whole entry): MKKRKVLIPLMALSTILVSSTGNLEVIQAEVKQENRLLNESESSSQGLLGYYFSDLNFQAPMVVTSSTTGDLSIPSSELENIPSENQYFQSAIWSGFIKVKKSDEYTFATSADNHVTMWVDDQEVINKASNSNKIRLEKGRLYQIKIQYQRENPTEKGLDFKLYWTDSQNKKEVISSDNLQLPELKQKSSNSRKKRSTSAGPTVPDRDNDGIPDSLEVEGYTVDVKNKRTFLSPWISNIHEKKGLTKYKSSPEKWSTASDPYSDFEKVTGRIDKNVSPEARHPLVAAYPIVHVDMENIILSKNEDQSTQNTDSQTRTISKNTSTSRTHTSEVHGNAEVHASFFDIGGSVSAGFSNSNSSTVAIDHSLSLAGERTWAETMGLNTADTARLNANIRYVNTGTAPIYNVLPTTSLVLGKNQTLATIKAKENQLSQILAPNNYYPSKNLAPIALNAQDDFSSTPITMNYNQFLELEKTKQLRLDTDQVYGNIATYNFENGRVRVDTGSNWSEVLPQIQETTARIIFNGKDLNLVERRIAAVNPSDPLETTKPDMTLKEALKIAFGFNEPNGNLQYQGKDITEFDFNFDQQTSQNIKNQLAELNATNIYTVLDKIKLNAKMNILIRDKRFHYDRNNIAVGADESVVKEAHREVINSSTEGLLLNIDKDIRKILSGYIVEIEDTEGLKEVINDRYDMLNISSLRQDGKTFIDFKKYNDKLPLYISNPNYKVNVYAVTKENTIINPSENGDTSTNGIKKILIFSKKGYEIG

CHO-K1 = assay: Inhibition of cholera toxin-mediated intoxication in CHOK1 cells assessed as cAMP levels after 4 hrs by HTRF assay; format: cell-based; conditions: Vibrio cholerae
[4] = target: Protective antigen (Bacillus anthracis) (UniProt P13423); assay: Inhibition of Bacillus anthracis protective antigen pore formation in mouse RAW264.7 cells at 12.5 uM after 2 hrs; format: cell-based
Rattus norvegicus [5] = assay: Protection against Bacillus anthracis lethal toxin-mediated intoxication in Fischer 344 rat assessed as time to death at 54 mg/kg administered through cannula; format: functional
Rattus norvegicus [6] = assay: Toxicity in Bacillus anthracis lethal toxin-mediated intoxicated Fischer 344 rat assessed as adverse side effects administered through cannula; format: organism-based; conditions: in vivo, other
Serum = assay: Drug level in human serum; format: ADME, cell-free; conditions: read-out: Drug uptake
Rattus norvegicus [7] = assay: Protection against Bacillus anthracis lethal toxin-mediated intoxication in Fischer 344 rat assessed as time to death at 5.4 mg/kg administered through cannula; format: functional
[8] = target: Diphtheria toxin (Corynebacterium diphtheriae) (UniProt Q5PY51); assay: Protection against diphtheria toxin-mediated cytotoxicity in CHOK1 cells assessed as cell viability after 48 hrs by WST1 dye reduction assay; format: cell-based; conditions: CHO-K1
Chain of Diphtheria toxin (Corynebacterium diphtheriae) (Q5PY51 as listed by the source): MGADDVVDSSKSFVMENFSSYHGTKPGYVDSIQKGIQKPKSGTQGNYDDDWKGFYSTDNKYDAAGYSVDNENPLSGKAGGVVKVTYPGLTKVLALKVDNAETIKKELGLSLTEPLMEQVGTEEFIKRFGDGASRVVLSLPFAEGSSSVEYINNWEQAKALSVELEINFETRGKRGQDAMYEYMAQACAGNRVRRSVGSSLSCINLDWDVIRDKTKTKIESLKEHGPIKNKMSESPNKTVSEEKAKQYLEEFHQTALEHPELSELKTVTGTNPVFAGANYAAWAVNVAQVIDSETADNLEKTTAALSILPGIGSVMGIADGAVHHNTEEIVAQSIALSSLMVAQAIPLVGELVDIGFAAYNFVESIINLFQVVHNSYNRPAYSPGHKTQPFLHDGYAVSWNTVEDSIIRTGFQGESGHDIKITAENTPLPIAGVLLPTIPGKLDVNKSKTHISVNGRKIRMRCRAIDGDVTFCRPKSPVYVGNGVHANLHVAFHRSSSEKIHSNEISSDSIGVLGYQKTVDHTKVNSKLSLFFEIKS

Plasmodium falciparum = assay: Antimalarial activity against Plasmodium falciparum; format: functional, organism-based

**Q.** With `C1CCC(/N=C(\NC23CC4CC(CC(C4)C2)C3)N2CCOCC2)CC1` as the compound, how does the fold change (FC) [1] read?
**A.** Its fold change (FC) is 3.9.

**Q.** With `CC1(C)CCC(C)(C)c2cc(C(=O)Nc3ccc(C(=O)O)cc3)ccc21` as the compound, how does the fold change (FC) [1] read?
**A.** Its fold change (FC) is 3.9.

**Q.** `CC1(C)Oc2ccc(C#N)cc2[C@@H](OC2=CC(=O)CC2)[C@@H]1O` was tested. Which fold change (FC) [1] did it give?
**A.** The fold change (FC) was 3.

**Q.** `CC1=C(/C=C/C(C)=C/C=C/C(C)=C/C(=O)O)C(C)(C)CCC1` was tested. Which fold change (FC) [1] did it give?
**A.** Its fold change (FC) is 3.

**Q.** For `CC1=C(/C=C/C(C)=C/C=C/C(C)=C\C(=O)O)C(C)(C)CCC1`, which fold change (FC) [1] is on record?
**A.** Its fold change (FC) is 3.2.

**Q.** With `CC1=C(/C=C/C(C)=C\C=C\C(C)=C\C(=O)O)C(C)(C)CCC1` as the compound, how does the fold change (FC) [1] read?
**A.** The fold change (FC) was 2.6.

**Q.** Which fold change (FC) [1] does the source give for `CCCCCCCCCCCCCCCCOC[C@@H](COP(=O)([O-])OCC[N+](C)(C)C)OC(C)=O` here?
**A.** Its fold change (FC) is 3.2.

**Q.** `CCCNCC(O)COc1ccccc1C(=O)CCc1ccccc1` (centres undefined) was tested. Which fold change (FC) [1] did it give?
**A.** Its fold change (FC) is 3.1.

**Q.** `COc1ccc(S(=O)(=O)N(CCO)c2ccccc2CN(C)C/C=C/c2ccc(Cl)cc2)cc1` was tested. Which fold change (FC) [1] did it give?
**A.** The fold change (FC) was 6.3.

**Q.** With `N=C(NC(=O)c1nc(Cl)c(N)nc1N)Nc1ccccc1` as the compound, how does the fold change (FC) [1] read?
**A.** Its fold change (FC) is 2.8.

**Q.** For `N[C@@H](COP(=O)(O)O)C(=O)O`, which fold change (FC) [1] is on record?
**A.** Its fold change (FC) is 2.8.

**Q.** How did the fold change (FC) [1] turn out when `O=S(=O)(NCCNC/C=C/c1ccc(Br)cc1)c1cccc2cnccc12` was run?
**A.** The fold change (FC) was 2.9.

**Q.** For `O=c1[nH]c2cc(C(F)(F)F)ccc2n1-c1cc(C(F)(F)F)ccc1O`, which fold change (FC) [1] is on record?
**A.** Its fold change (FC) is 2.8.

**Q.** Which results are given for `CCCCc1oc2ccccc2c1C(=O)c1cc(I)c(OCCN(CC)CC)c(I)c1` [AMIODARONE]?
**A.** Activity [2]: Active; Activity [3]: inactive; Activity (CHO-K1): inactive; Activity [4]: Active; Activity (Rattus norvegicus [5]): 82.6 min; Activity (Rattus norvegicus [6]): Non-toxic; concentration (Serum): 3.75 µM; Activity (Rattus norvegicus [7]): 64.8 min; Activity [8]: Active

**Q.** Which results are given for `CC(C)COCC(CN(Cc1ccccc1)c1ccccc1)N1CCCC1` (centres undefined) [BEPRIDIL]?
**A.** Activity [2]: Active; IC50 (Plasmodium falciparum): 2500 nM; Activity [3]: inactive; Activity (CHO-K1): inactive; Activity [4]: Active; concentration (Serum): 6.8 µM; Activity [8]: Active
